Reference: patent US20230138563A1, “METHODS FOR QUANTIFICATION OF COMPOUNDS IN CULTIVARS OF Cannabis sp” (MEDLEAF BIOTECHNOLOGIES AND GLOBAL RESEARCH AND D[…]., priority 2020, published 2023)
pKd: −log10 of the molar value.

Key:
[1] = tested on: U87 human glioma cell line; settings: cited from earlier work
[2] = tested on: U373 human glioma cell line; settings: cited from earlier work
[3] = tested on: U-87 MG glioma cell; assay: single-cell microfluidic intracellular calcium bioassay (Fluo-4 fluorescence); settings: for [Ca^2+]i: single U-87 MG cell, calculated from fluorescence by eq. 1
Protocol: The current study was designed to investigate the pharmacological potential of CBD on calcium uptake in U87MG glioma cells by a method using a single-cell microfluidic approach.
The glass chip was fabricated through the standard micromachining processes at Canadian Microelectronic Corporation (CMC) by a process that includes standard chip cleaning, thin film deposition, photolithography, photoresist development, hydrofluoric acid wet etching, reservoir forming, and chip bonding, as previously reported (Li et al. 2005). The chip design is shown in FIG. 9, consisting of three reservoirs, three channels and one chamber containing the cell retention structure to isolate the single cell. Reservoir 1 was used for cell introduction and washing, reservoir 2 was used for reagent delivery, and reservoir 3 was a waste reservoir. The channel was 40 μm deep, while the reservoirs were 600 μm deep and 2.5 mm in diameter.
A fluorescent calcium probe, Fluo-4 AM ester (50 μg, special packaging, Molecular Probes, Eugene, Oreg.) was first dissolved in 50 μL of dimethyl sulfoxide (DMSO, 99.9%, Sigma-Aldrich, St. Louis, Mo.) to make a stock solution of 1 μg/μL. Before use, it was freshly diluted in Hanks' balanced salt solution (HBSS, Invitrogen Corp., Grand Island, N.Y.) to make a 5.0 μM working solution. Due to light sensitivity of Fluo-4 AM, it must be stored in the dark at −20° C. Cannabidiol (CBD) was purchased from Cerilliant Corporation (Round Rock, Tex.) as drug enforcement agency-exempt solution, i.e. 1 mg/mL solution in methanol (MeOH). Trypan blue solutions (4%) were purchased from Sigma-Aldrich (St. Louis, Mo.). RPMI 1640 medium solution, trypsin-ethylenediaminetetraacetic acid (Trypsin-EDTA) (0.025%), penicillin-streptomycin and fetal bovine serum (FBS) were obtained from Life Technologies (Grand Island, N.Y.). lonomycin (Calcium salt, Sigma Chemical Co.) was used to saturate the Ca^2+-Fluo-4 fluorescence within the cells. Ionomycin was dissolved in DMSO to make the stock solution which was finally diluted in HBSS containing 1 mM CaCl2 to make working solutions. The glioma cells (U-87 MG) were obtained from ATCC (Manassas, Va.). The cells were maintained in the RPMI medium with 10% fetal bovine serum and 1% penicillin in a 5% CO2 atmosphere at 37° C. and were passaged twice a week.
An optical imaging and fluorescent measurement system was used, as previously described (Li et al., 2009). Briefly, an inverted microscope (TE300, Nikon, Mississauga, ON, Canada) was connected to a video camera (JVC, TK-C3180). A TV set was used for optical observation (FIG. 2). By using a dichroic filter (620 nm), only red light entered the video camera for cell imaging without interfering with the fluorescent measurement. The green fluorescent emission (535 nm) was achieved under the Xenon arc lamp excitation (480 nm) selected by the microphotometer system (PTI) through a detection aperture. The chip was translated back and forth manually so the cellular fluorescence or background signal could be measured.
Before running any experiment, the microfluidic chip was cleaned by soap solution (2 times), rinsed with deionized water (3 to 5 times), and sterilized with 75% ethanol (1 time). After the cleaning step, […] of a cell suspension was introduced into the cell inlet from reservoir 1, the cells flowed from the left to right across the cell retention structure. By adjusting the liquid levels of the right […] (waste) and the left reservoir 1 (cell inlet), a desired U-87 MG cell was slowed down near the entrance of the cell retention structure. As the glioma cell is adherent, it readily becomes stationary to maintain its location in the retention structure. The glioma cell was allowed to settle for about 15 minutes, during which it was attached to the glass chip surface before the fluorescence measurement started.

[4] = tested on: U87 human glioma cells; settings: in vitro, dose-dependently, 0.01 up to 9 μM; cited from earlier work
[5] = tested on: U87 human glioma cells; settings: mouse, in vivo; cited from earlier work
[6] = read-out: Kd (dissociation constant of the dye); cited from earlier work

C=C(C)[C@@H]1CCC(C)=C[C@H]1c1c(O)cc(CCCCC)cc1O [CBD, cannabidiol]
mitochondrial oxidative metabolism ([1]; CBD exposure to cells): reduced | antiproliferative effect ([1]; U87): antiproliferative effects | antiproliferative effect [2]: antiproliferative effects | change of [Ca^2+]i (FIG. 10) ([3]; 9.5 μM CBD): increased slightly | change of [Ca^2+]i (FIG. 10) ([3]; 19 μM CBD compared to 9.5 μM): significantly increased | concentration dependence of intracellular [Ca^2+]i increase ([3]; CBD 9.5 and 19 μM): concentration-dependent manner | cell viability by trypan blue at end of experiment ([3]; after 9.5 and 19 μM CBD and ionomycin): not dead | [Ca^2+]i ([3]; after 9.5 μM CBD): 47.9 nM | [Ca^2+]i ([3]; after 19 μM CBD): 913 nM | translocation of U87 human glioma cells [4]: inhibited | viability of U87 human glioma cells in mice [5]: prohibited

Cc1ccc(N(CC(=O)O)CC(=O)O)c(OCCOc2cc(-c3c4cc(F)c(=O)cc-4oc4cc(O)c(F)cc34)ccc2N(CC(=O)O)CC(=O)O)c1 [Fluo-4]
pKd [6]: 6.46

C[C@H](CCC(=O)O)C[C@H](C)C[C@H](C)C(=O)/C=C(\O)[C@H](C)C[C@H](C)C/C=C/[C@@H](C)[C@@H](O)[C@@H](C)[C@@H](O)C[C@@H]1CC[C@@](C)([C@H]2CC[C@@](C)([C@@H](C)O)O2)O1 [ionomycin, Ionomycin]
fluorescence response after ionomycin (Fmax) ([3]; 10 μM ionomycin, at ~6000 s): obvious fluorescence peak

C=CC(=C)CCC=C(C)C [myrcene]
cell calcium response ([3]; 10 μM, data not shown): not detectable | cell calcium response (FIG. 11) ([3]; 20 μM, alone): a little cell calcium response
